Results reported in patent US20170349638A1, “COMPANION DIAGNOSTIC TOOL FOR PEPTIDOMIMETIC MACROCYCLES” (AILERON Therapeutics, Inc., priority 2016, published 2017).
pIC50, pKi: −log10 of the molar value. Read-outs that look alike come from different tables or passages of the source. Values belong to the compound of their own block, whether it stands above or below them. Where a SMILES comes first, the peptide text is derived from it. Bridges are numbered along the chain shown (N, C = ends). [ ]: non-standard residue; d: D form. Phe(4-COOH) = N[C@@H](Cc1ccc(C(=O)O)cc1)C(=O)O; R8 = C=CCCCCCC[C@@](C)(N)C(=O)O; Cba = N[C@@H](CC1CCC1)C(=O)O; S5 = C=CCCC[C@](C)(N)C(=O)O

Experiments:
SJSA-1 cells = assay: Cell lysis by peptidomimetic macrocycles (LDH release); format: cell-based; settings: 1 h incubation
Procedure: On the day of the assay, media was exchanged with RPMI 1% FBS media, 90 μl of media per well.
10 mM stock solutions of the peptidomimetic macrocycles were prepared in 100% DMSO.
The negative control (non-lytic) sample was 0.5% DMSO alone and positive control (lytic) samples include 10 uM Melittin and 1% Triton X-100.
Cell plates were incubated for 1 hour at 37° C. After the 1 hour incubation, the morphology of the cells is examined by microscope and then the plates were centrifuged at 1200 rpm for 5 minutes at room temperature. 40 μl of supernatant for each peptidomimetic macrocyle and control sample is transferred to clear assay plates.

[1] = tested on: MCF-7 breast cancer xenograft; assay: MCF-7 breast cancer xenograft study; format: in vivo, female nude (Crl:NU-Foxn1nu) mice; settings: for mice died during treatment: 10 mice per group
Procedure: A negative control stapled peptide. […] Slow release 90 day 0.72 mg 17β-estradiol pellets (Innovative Research, Sarasota, Fla.) were implanted subcutaneously (sc) on the nape of the neck one day prior to tumor cell implantation (Day −1). On Day 0, MCF-7 tumor cells were implanted sc in the flank of female nude (Crl:NU-Foxn1nu) mice. On Day 18, the resultant sc tumors were measured using calipers to determine their length and width and the mice were weighed. The tumor sizes were calculated using the formula (length×width^2)/2 and expressed as cubic millimeters (mm^3). Mice with tumors smaller than 85.3 mm^3 or larger than 417.4 mm^3 were excluded from the subsequent group formation. Thirteen groups of mice, 10 mice per group, were formed by randomization such that the group mean tumor sizes were essentially equivalent (mean of groups±standard deviation of groups=180.7±17.5 mm^3).
This formulation was prepared once for the duration of the study. This vehicle was used as the vehicle control in the subsequent study.
Each group was assigned to a different treatment regimen. Group 1, as the vehicle negative control group, received the vehicle administered at 8 mL/kg body weight intravenously (iv) three times per week from Days 18-39. […] Group 4 received 6.7 mg/kg SP249 as an iv injection three times per week. […] Group 9 received 30 mg/kg SP252 as an iv injection three times per week.
During the dosing period the mice were weighed and tumors measured 1-2 times per week.

MDMX = biological target: T1, MDMX (Homo sapiens, UniProt O15151); assay: Competitive fluorescence polarization assay MDMX; format: binding; settings: Table 26B; competitive FP
T1 sequence (O15151 1-125): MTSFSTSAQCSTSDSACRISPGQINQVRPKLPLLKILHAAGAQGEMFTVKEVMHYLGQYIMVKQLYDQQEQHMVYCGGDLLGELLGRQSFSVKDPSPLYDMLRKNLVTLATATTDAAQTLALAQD
Procedure: Dilute MDMX (In-house, 40 kD) into FP buffer (High salt buffer—200 mM NaCl, 5 mM CHAPS, pH 7.5.) to make 300 nM (2×) working stock solution. • 2. Add 20 μl of 300 nM (2×) of protein stock solution into each well of 96-well black HE microplate (Molecular Devices) • 3. Dilute 1 mM (in 100% DMSO) of FAM labeled linear peptide with DMSO to 100 μM (dilution 1:10). Then, dilute from 100 μM to 10 μM with water (dilution 1:10) and then dilute with FP buffer from 10 μM to 40 nM (dilution 1:250). This is the working solution which will be a 10 nM concentration in well (dilution 1:4). Keep the diluted FAM labeled peptide in the dark until use. • 4. […] Dilute 10 mM (in 100% DMSO) with DMSO to 5 mM (dilution 1:2). Then, dilute from 5 mM to 500 μM with H2O (dilution 1:10) and then dilute with FP buffer from 500 μM to 20 μM (dilution 1:25). […] Transfer 10 μl of serial diluted unlabeled peptides to each well which is filled with 20 μl of 300 nM of protein. • 7. Add 10 μl of 10 nM (4×) of FAM labeled peptide into each well and incubate for 3 hr to read.

MDM2 = MDM2 (Homo sapiens, UniProt Q00987); assay: Competitive fluorescence polarization assay for MDM2; format: binding
Procedure: Dilute 1 mM (in 100% DMSO) of FAM labeled linear peptide with DMSO to 100 μM (dilution 1:10). Then, dilute from 100 μM to 10 μM with water (dilution 1:10) and then dilute with FP buffer from 10 μM to 40 nM (dilution 1:250). This is the working solution which will be a 10 nM concentration in well (dilution 1:4). Keep the diluted FAM labeled peptide in the dark until use. • 4. […] Dilute 10 mM (in 100% DMSO) with DMSO to 5 mM (dilution 1:2). Then, dilute from 5 mM to 500 μM with H2O (dilution 1:10) and then dilute with FP buffer from 500 μM to 20 μM (dilution 1:25). […] Add 10 μl of 10 nM (4×) of FAM labeled peptide into each well and incubate for 3 hr to read.

[2] = Circular dichroism (CD) analysis of alpha-helicity; format: physicochemical; settings: 222 nm; for Molar Ellipticity 50% TFE (222 in 50% TFE): CD buffer with 50% TFE; for Molar Ellipticity 50% TFE (222 in 50% TFE) / Molar Ellipticity Benign (222 in 0% TFE): 0.05 mg/ml, 4° C.; for Molar Ellipticity Benign (222 in 0% TFE): benign CD buffer (20 mM phosphoric acid, pH 2); for Molar Ellipticity TFE − Molar Ellipticity Benign: difference 50% TFE minus benign buffer
Procedure: A Peltier temperature controller was used to maintain temperature control of the optical cell. Results are expressed as mean molar ellipticity [θ] […] Peptide concentrations were determined by amino acid analysis. Stock solutions of peptides were prepared in benign CD buffer (20 mM phosphoric acid, pH 2). The stocks were used to prepare peptide solutions of 0.05 mg/ml in either benign CD buffer or CD buffer with 50% trifluoroethanol (TFE) for analyses in a 10 mm pathlength cell. […] The average of six scans was reported.

[3] = 30 mg/kg iv three times per week
[4] = Table 26B, competitive FP, read-out: Ki (MDM2)

Sequence of MDM2 (Q00987 1-125): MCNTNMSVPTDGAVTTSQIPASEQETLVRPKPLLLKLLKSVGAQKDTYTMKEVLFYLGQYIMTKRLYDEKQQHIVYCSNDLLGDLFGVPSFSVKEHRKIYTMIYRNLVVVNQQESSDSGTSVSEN

Compound: 413 (LTFAXYWAQLAAALA; not fully specified; Ac, NH2, staple, Cou4, Nle; N-term Ac; MOD_RES (4)..(4): Alpha-Me R-azide 1,4 triazole (6 carbon) alanine olefin amino acid connected by an all-carbon crosslinker comprising one double bond; misc_feature (4)..(11): Crosslink between residues; MOD_RES () [compound 413]
- 6.25 uM % Lysed cells (1 h LDH) (SJSA-1 cells): 5%
- 25 uM % Lysed cells (1 h LDH) (SJSA-1 cells): 3%
- 50 uM % Lysed cells (1 h LDH) (SJSA-1 cells): 3%

Compound: 414 (LTFAXYWAQLAAALA; not fully specified; Ac, NH2, staple, Cou4, Nle; N-term Ac; MOD_RES (4)..(4): Alpha-Me R-azide 1,4 triazole (6 carbon) alanine olefin amino acid connected by an all-carbon crosslinker comprising one double bond; misc_feature (4)..(11): Crosslink between residues; MOD_RES () [compound 414]
- 6.25 uM % Lysed cells (1 h LDH) (SJSA-1 cells): 3%
- 25 uM % Lysed cells (1 h LDH) (SJSA-1 cells): 2%
- 50 uM % Lysed cells (1 h LDH) (SJSA-1 cells): 2%

Compound: CC(=O)N[C@@H](CC(C)C)C(=O)N[C@H](C(=O)N[C@@H](Cc1ccccc1)C(=O)N[C@]1(C)CCCCCCC=CCCC[C@@](C)(C(=O)N[C@@H](CO)C(=O)N[C@@H](C)C(=O)N[C@@H](C)C(N)=O)NC(=O)[C@H](CC2CCC2)NC(=O)[C@H](CCC(N)=O)NC(=O)[C@H](C)NC(=O)[C@H](Cc2c[nH]c3ccccc23)NC(=O)[C@H](Cc2ccc(O)cc2)NC(=O)[C@H](CCC(=O)O)NC1=O)[C@@H](C)O [SP154]
- % BW Change ([1]; 30 mg/kg 3x/wk iv, mice): +5.7%
- No. with ≧10% BW Loss ([1]; 30 mg/kg 3x/wk iv, mice): 0/10
- No. with ≧20% BW Loss or death ([1]; 30 mg/kg 3x/wk iv, mice): 0/10
- tolerability of dosing regimen [1, 3]: well-tolerated
- No. with ≧10% BW Loss ([1]; 40 mg/kg 2x/wk iv, mice): 0/10
- No. with ≧20% BW Loss or death ([1]; 40 mg/kg 2x/wk iv, mice): 2/10
- tolerability of dosing regimen ([1]; 40 mg/kg iv twice a week): not tolerable
- mice died during treatment ([1]; 40 mg/kg iv twice a week): 2 mice

Compound: CC[C@H](C)[C@H](NC(=O)[C@H](C)NC(=O)[C@H](C)NC(=O)[C@]1(C)CCCC=CCCCCCC[C@@](C)(NC(=O)[C@H](Cc2ccccc2)NC(=O)[C@@H](NC(=O)[C@H](CC(C)C)NC(C)=O)[C@@H](C)O)C(=O)N[C@@H](CCC(=O)O)C(=O)N[C@@H](Cc2ccc(C(=O)O)cc2)C(=O)N[C@@H](Cc2c[nH]c3ccccc23)C(=O)N[C@@H](C)C(=O)N[C@@H](CCC(N)=O)C(=O)N[C@@H](CC2CCC2)C(=O)N1)C(=O)N[C@H](C)C(N)=O [SP249] (Ac-LTF[R8]E[Phe(4-COOH)]WAQ[Cba][S5]AAI[dA]-NH2; staple 4-11)
- mice died during treatment ([1]; […] iv three times per week): 4 mice

Compound: CC(=O)N[C@@H](CC(C)C)C(=O)N[C@H](C(=O)N[C@@H](C)C(=O)N[C@]1(C)CCCCCCC=CCCC[C@@](C)(C(=O)N[C@@H](CO)C(=O)N[C@@H](C)C(=O)N[C@@H](C)C(N)=O)NC(=O)[C@H](CC2CCC2)NC(=O)[C@H](CCC(N)=O)NC(=O)[C@H](C)NC(=O)[C@H](Cc2c[nH]c3ccccc23)NC(=O)[C@H](Cc2ccc(O)cc2)NC(=O)[C@H](CCC(=O)O)NC1=O)[C@@H](C)O [SP252]
- body weight loss or deaths [1, 3]: no body weight loss or deaths noted

Compound: CC(=O)N[C@@H](CC(C)C)C(=O)N[C@H](C(=O)N[C@@H](Cc1ccccc1)C(=O)N[C@]1(C)CCCCCCn2cc(nn2)CCC[C@@](C)(C(=O)N[C@@H](C)C(=O)N[C@@H](C)C(=O)N[C@@H](C)C(=O)N[C@@H](C)C(=O)N[C@@H](C)C(=O)N[C@H](C)C(N)=O)NC(=O)[C@H](CC(C)C)NC(=O)[C@H](CCC(N)=O)NC(=O)[C@H](C)NC(=O)[C@H](Cc2c[nH]c3ccccc23)NC(=O)[C@H](Cc2ccc(O)cc2)NC(=O)[C@H](C)NC1=O)[C@@H](C)O [SP450, Ac-LTF$4rn6AYWAQL$4a5AAAAAa-NH2]
- pKi (MDM2): 6.00 to 7.00

Compound: CC(=O)N[C@@H](CC(C)C)C(=O)N[C@H](C(=O)N[C@@H](Cc1ccccc1)C(=O)N[C@]1(C)CCCCCCn2cc(nn2)CCC[C@@](C)(C(=O)N[C@@H](C)C(=O)N[C@@H](C)C(=O)N[C@@H](C)C(=O)N[C@@H](C)C(=O)N[C@@H](C)C(=O)N[C@H](C)C(N)=O)NC(=O)[C@H](CC(C)C)NC(=O)[C@H](CCC(N)=O)NC(=O)[C@H](C)NC(=O)[C@H](Cc2c[nH]c3ccccc23)NC(=O)[C@H](Cc2ccc(O)cc2)NC(=O)[C@H](CCC(=O)O)NC1=O)[C@@H](C)O [SP451, Ac-LTF$4rn6EYWAQL$4a5AAAAAa-NH2]
- pKi (MDM2): 7.00 to 8.00

The remaining lines, values ahead:

- pIC50 (MDMX): > 8.00
- pKi (MDMX): > 8.00
- pIC50 (MDM2; Table 26B, competitive FP): > 8.00
- pKi (MDM2; [4]): > 8.00
Compound: CCCC[C@H](NC(=O)[C@H](C)NC(=O)[C@H](C)NC(=O)[C@]1(C)CCCc2cn(nn2)CCCCCC[C@@](C)(NC(=O)[C@H](Cc2ccccc2)NC(=O)[C@@H](NC(=O)[C@H](CC(C)C)NC(C)=O)[C@@H](C)O)C(=O)N[C@@H](C)C(=O)N[C@@H](Cc2ccc(O)cc2)C(=O)N[C@@H](Cc2c[nH]c3ccccc23)C(=O)N[C@@H](C)C(=O)N[C@@H](CCC(N)=O)C(=O)N[C@@H](CC(C)C)C(=O)N1)C(=O)N[C@@H](C)C(N)=O [SP449, Ac-LTF$4rn6AYWAQL$4a5AANleA-NH2]

- pKi (MDMX): 7.00 to 8.00
- pKi (MDM2; [4]): > 8.00
Compound: CC(=O)N[C@@H](CC(C)C)C(=O)N[C@H](C(=O)N[C@@H](Cc1ccccc1)C(=O)N[C@]1(C)CCCCCCn2nncc2CCC[C@@](C)(C(=O)N[C@@H](CO)C(=O)N[C@@H](C)C(=O)N[C@@H](C)C(N)=O)NC(=O)[C@H](CC2CCC2)NC(=O)[C@H](CCC(N)=O)NC(=O)[C@H](C)NC(=O)[C@H](Cc2c[nH]c3ccccc23)NC(=O)[C@H](Cc2ccc(O)cc2)NC(=O)[C@H](CCC(=O)O)NC1=O)[C@@H](C)O [SP456, Ac-LTF$5rn6EYWAQCba$5a5SAA-NH2]

- pKi (MDMX): > 8.00
- pKi (MDM2; [4]): > 8.00
Compound: CC(=O)N[C@@H](CC(C)C)C(=O)N[C@H](C(=O)N[C@@H](Cc1ccccc1)C(=O)N[C@]1(C)CCCCCCn2nnc(c2I)CCC[C@@](C)(C(=O)N[C@@H](CO)C(=O)N[C@@H](C)C(=O)N[C@@H](C)C(N)=O)NC(=O)[C@H](CC2CCC2)NC(=O)[C@H](CCC(N)=O)NC(=O)[C@H](C)NC(=O)[C@H](Cc2c[nH]c3ccccc23)NC(=O)[C@H](Cc2ccc(O)cc2)NC(=O)[C@H](CCC(=O)O)NC1=O)[C@@H](C)O [SP457, Ac-LTF$4rn6EYWAQCba5I-$4a5SAA-NH2]

- pKi (MDMX): < 6.00
- pKi (MDM2; [4]): < 6.00
Compound: CC(=O)N[C@@H](CC(C)C)C(=O)N[C@H](C(=O)N[C@@H](C)C(=O)N[C@]1(C)CCCCCCn2nncc2CCC[C@@](C)(C(=O)N[C@@H](CO)C(=O)N[C@@H](C)C(=O)N[C@@H](C)C(N)=O)NC(=O)[C@H](CC2CCC2)NC(=O)[C@H](CCC(N)=O)NC(=O)[C@H](C)NC(=O)[C@H](Cc2c[nH]c3ccccc23)NC(=O)[C@H](Cc2ccc(O)cc2)NC(=O)[C@H](CCC(=O)O)NC1=O)[C@@H](C)O [SP459, Ac-LTA$5rn6EYWAQCba$5a5SAA-NH2]

- pKi (MDMX): < 6.00
- pKi (MDM2; [4]): < 6.00
Compound: CC(=O)N[C@@H](CC(C)C)C(=O)N[C@H](C(=O)N[C@@H](C)C(=O)N[C@]1(C)CCCCCCn2cc(nn2)CCC[C@@](C)(C(=O)N[C@@H](CO)C(=O)N[C@@H](C)C(=O)N[C@@H](C)C(N)=O)NC(=O)[C@H](CC2CCC2)NC(=O)[C@H](CCC(N)=O)NC(=O)[C@H](C)NC(=O)[C@H](Cc2c[nH]c3ccccc23)NC(=O)[C@H](Cc2ccc(O)cc2)NC(=O)[C@H](CCC(=O)O)NC1=O)[C@@H](C)O [SP460, Ac-LTA$4rn6EYWAQCba$4a5SAA-NH2]

- Molar Ellipticity 50% TFE (222 in 50% TFE) [2]: −17957 deg cm^2dmol^−1
- Molar Ellipticity Benign (222 in 0% TFE) [2]: −121.2 deg cm^2dmol^−1
- Molar Ellipticity TFE − Molar Ellipticity Benign [2]: −17835.9 deg cm^2dmol^−1
Compound: CC[C@H](C)[C@H](NC(=O)[C@H](C)NC(=O)[C@H](C)NC(=O)[C@]1(C)CCC/C=C/CCCCCC[C@@](C)(NC(=O)[C@H](Cc2ccccc2)NC(=O)[C@@H](NC(=O)[C@H](CC(C)C)NC(C)=O)[C@@H](C)O)C(=O)N[C@@H](C)C(=O)N[C@@H](Cc2ccc(O)cc2)C(=O)N[C@@H](Cc2c[nH]c3ccccc23)C(=O)N[C@@H](C)C(=O)N[C@@H](CCC(N)=O)C(=O)N[C@@H](CC(C)C)C(=O)N1)C(=O)N[C@H](C)C(N)=O [compound 71]

- Molar Ellipticity 50% TFE (222 in 50% TFE) [2]: −19032.6 deg cm^2dmol^−1
- Molar Ellipticity Benign (222 in 0% TFE) [2]: −477.9 deg cm^2dmol^−1
- Molar Ellipticity TFE − Molar Ellipticity Benign [2]: −18554.7 deg cm^2dmol^−1
Compound: CC(=O)N[C@@H](CC(C)C)C(=O)N[C@H](C(=O)N[C@@H](Cc1ccccc1)C(=O)N[C@]1(C)CCCCCCC=CCCC[C@@](C)(C(=O)N[C@@H](C)C(=O)N[C@@H](C)C(=O)N[C@@H](C)C(=O)N[C@@H](C)C(=O)N[C@H](C)C(N)=O)NC(=O)[C@H](CC(C)C)NC(=O)[C@H](CCC(N)=O)NC(=O)[C@H](C)NC(=O)[C@H](Cc2c[nH]c3ccccc23)NC(=O)[C@H](Cc2ccc(O)cc2)NC(=O)[C@H](C)NC1=O)[C@@H](C)O [compound 233]
